Reference: ChEMBL document CHEMBL5036333, “Cryptoyunnanones A-H, Complex Flavanones from Cryptocarya yunnanensis” (J Nat Prod, 2021)
Where a name gives a salt, the structure may show the parent alone.

Experiments:
Format in all cases: functional, cell-based
HCT-116 = assay: Cytotoxicity against human HCT-116 cells assessed as cell growth inhibition measured after 48 hrs by MTT assay; conditions: HCT-116, 48 h
A549 = assay: Cytotoxicity against human A549 cells assessed as cell growth inhibition measured after 48 hrs by MTT assay; conditions: A549, 48 h
MDA-MB-231 = assay: Cytotoxicity against human MDA-MB-231 cells assessed as cell growth inhibition measured after 48 hrs by MTT assay; conditions: MDA-MB-231, 48 h
PC-3 = assay: Cytotoxicity against human PC-3 cells assessed as cell growth inhibition measured after 48 hrs by MTT assay; conditions: PC-3, 48 h

SMILES: O=C(O)CCC[C@@H]1C[C@@H]2C[C@@](/C=C/c3ccccc3)(Oc3cc(O)c4c(c32)O[C@H](c2ccccc2)CC4=O)O1
- IC50 (HCT-116): > 10 µM
- IC50 (A549): > 10 µM
- IC50 (MDA-MB-231): > 10 µM
- IC50 (PC-3): > 10 µM

SMILES: O=C(O)CCC[C@@H]1C[C@@H]2C[C@@](/C=C/c3ccccc3)(Oc3cc(O)c4c(c32)O[C@@H](c2ccccc2)CC4=O)O1
- IC50 (HCT-116): > 10 µM
- IC50 (A549): > 10 µM
- IC50 (MDA-MB-231): > 10 µM
- IC50 (PC-3): > 10 µM

SMILES: O=C1C=CC[C@H](C[C@@H]2C[C@@H]3C[C@@](/C=C/c4ccccc4)(Oc4cc(O)c5c(c43)O[C@@H](c3ccccc3)CC5=O)O2)O1
- IC50 (HCT-116): 9 µM
- IC50 (A549): > 10 µM
- IC50 (MDA-MB-231): 9.1 µM
- IC50 (PC-3): 7.6 µM

SMILES: O=C1C=CC[C@H](C[C@@H]2C[C@@H]3C[C@@](/C=C/c4ccccc4)(Oc4cc(O)c5c(c43)O[C@H](c3ccccc3)CC5=O)O2)O1
- IC50 (HCT-116): 8.1 µM
- IC50 (A549): > 10 µM
- IC50 (MDA-MB-231): 9.1 µM
- IC50 (PC-3): 7.8 µM

SMILES: O=C1C=CC[C@H](C[C@@H]2C[C@@H]3C[C@@](CCc4ccccc4)(Oc4cc(O)c5c(c43)O[C@H](c3ccccc3)CC5=O)O2)O1
- IC50 (HCT-116): 6.4 µM
- IC50 (A549): > 10 µM
- IC50 (MDA-MB-231): 8.6 µM
- IC50 (PC-3): 7.2 µM

SMILES: O=C1C=CC[C@H](C[C@@H]2C[C@@H]3C[C@@](CCc4ccccc4)(Oc4cc(O)c5c(c43)O[C@@H](c3ccccc3)CC5=O)O2)O1
- IC50 (HCT-116): 6.9 µM
- IC50 (A549): > 10 µM
- IC50 (MDA-MB-231): 8.5 µM
- IC50 (PC-3): 7.2 µM

SMILES: COC(=O)CCC[C@@H]1C[C@@H]2C[C@@](/C=C/c3ccccc3)(Oc3cc(O)c4c(c32)O[C@H](c2ccccc2)CC4=O)O1
- IC50 (HCT-116): > 10 µM
- IC50 (A549): > 10 µM
- IC50 (MDA-MB-231): > 10 µM
- IC50 (PC-3): > 10 µM

SMILES: COC(=O)CCC[C@@H]1C[C@@H]2C[C@@](/C=C/c3ccccc3)(Oc3cc(O)c4c(c32)O[C@@H](c2ccccc2)CC4=O)O1
- IC50 (HCT-116): > 10 µM
- IC50 (A549): > 10 µM
- IC50 (MDA-MB-231): > 10 µM
- IC50 (PC-3): > 10 µM

SMILES: COc1cccc2c1C(=O)c1c(O)c3c(c(O)c1C2=O)C[C@@](O)(C(=O)CO)C[C@@H]3O[C@H]1C[C@H](N)[C@H](O)[C@H](C)O1 [DOXORUBICIN HYDROCHLORIDE]
- IC50 (MDA-MB-231): 0.2 µM
- IC50 (PC-3): 0.2 µM
